Test results from US11427615B2, “Peptide compound and application thereof, and composition containing peptide compound” (XDCEXPLORER (SHANGHAI) CO., LTD., priority 2017, dated 2022).
pEC50: −log10 of the molar value. Non-standard residues stand in square brackets, D forms with d. Residues, ends and D or L forms follow the SMILES beside them. dPhe(2,4-Cl2) = N[C@H](Cc1ccc(Cl)cc1Cl)C(=O)O; Ala(2-furyl) = N[C@@H](Cc1ccco1)C(=O)O; Pro(4,4-F2) = O=C(O)[C@@H]1CC(F)(F)CN1; dAla(2-furyl) = N[C@H](Cc1ccco1)C(=O)O; dPhe(4-F) = N[C@H](Cc1ccc(F)cc1)C(=O)O; Arg(Me) = CNC(=N)NCCC[C@H](N)C(=O)O; Hyp = O=C(O)[C@@H]1C[C@@H](O)CN1; 2Thi = N[C@@H](Cc1cccs1)C(=O)O; NMeL = CN[C@@H](CC(C)C)C(=O)O; αMeL = CC(C)C[C@](C)(N)C(=O)O; Cba = N[C@@H](CC1CCC1)C(=O)O; Pip = O=C(O)[C@@H]1CCCCN1; Ac6c = NC1(C(=O)O)CCCCC1; Aze = O=C(O)[C@@H]1CCN1; Deg = CCC(N)(CC)C(=O)O; azaGly = NNC(=O)O; βAla = NCCC(=O)O

target: T1, human kiss1 receptor (GPR54) (Homo sapiens, UniProt Q969F8); assay: Kiss1 receptor (GPR54) binding activity of agonists, FRET detection in NFAT-bla CHO-K1 cells; assay type: cell-based; details: GPR54; measured according to the method of effect Embodiment 1; preliminary data; read-out: Preliminary measurement data (GPR54) EC50
T1 construct: host or cells: NFAT-bla CHO-K1 cells (Chinese hamster ovary), purchased recombinant cell line
T1 sequence (Q969F8 whole entry): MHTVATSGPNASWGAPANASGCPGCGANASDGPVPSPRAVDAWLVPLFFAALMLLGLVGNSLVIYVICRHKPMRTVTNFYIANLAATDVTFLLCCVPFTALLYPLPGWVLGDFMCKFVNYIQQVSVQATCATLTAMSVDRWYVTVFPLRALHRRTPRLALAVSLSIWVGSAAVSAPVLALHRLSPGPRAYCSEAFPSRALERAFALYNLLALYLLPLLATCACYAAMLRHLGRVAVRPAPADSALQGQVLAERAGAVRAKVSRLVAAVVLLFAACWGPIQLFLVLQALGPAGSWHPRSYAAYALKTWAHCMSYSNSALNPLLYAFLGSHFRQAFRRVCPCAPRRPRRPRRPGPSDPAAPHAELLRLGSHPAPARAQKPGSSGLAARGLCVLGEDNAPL
Procedure: Effect Embodiment 1 Determination of Kiss1 Receptor (GPR54) Binding Activity of Kiss1 Receptor (GPR54) Agonist
The binding activity test of each compound from the above the embodiments with kiss1 receptor (GPR54) was performed by fluorescence energy resonance transfer (FRET) detection technology to detect EC50 values of polypeptides and peptide analogs. The cells used in this experiment were NFAT-bla CHO-K1 cells (k1720, invitrogen, thermosher) that express human kiss1 receptor (GPR54). The specific operations were as follows:
Day 1: Seeding Cells in Plate
1. Microscope (CKX41, OLYMPUS), object lens×4 times, ocular lens×10 times. The cells were ensured in a good condition.
2. Digesting the cells, adding 3 ml of 0.05% pancreatin into a culture dish; cells were placed in a 37° C., 5% CO2 incubator for 2 minutes (Thermo Fisher). After the cells became round under the microscope, 7 ml of culture medium was added. The formula of culture medium was as follows: DMEM 90%, dialzedfbS10, NEAA 0.1 mM, HEPES 25 mM, Penicillin 100 U/ml, Streptomycin 100 μm/ml, pH7.3. After blowing and stirring, it was transferred to 15 mL centrifuge tube (430790, Corning). Centrifuge at 1000 rpm for 5 min (5810R, Eppendorf) and the supernatant was discard.
3. Adding 7 mL of culture medium (DMEM+0.1% BSA), it was pipetting into single cell suspension, after counting with Bio-RAD counter, the cell density was adjusted to 312,500 cells/ml.
4. Cells were inoculated into 384 well plates at 32 μL per well, and the cell number was controlled at 10000 cells/well. 32 μl of culture medium was added into the blank control.
Day 2: Dosing and Data Analysis
1) The compound to be tested was prepared into 50 mM working solution with DMSO.
2) 40 μl of the working solution of the compound to be tested was added into column 2 of row A-H of U-shaped 96-well plate (3797, comings), and 60 μl of DMSO was added into column 3-11. 20 μl of compound solution was sucked from the second column to the third column with a multichannel pipette blowing and stirring evenly; 20 μl of compound solution was absorbed from the third column with a multichannel pipette, then added into the fourth column, blowed and stirred to mix well; the compound was serially diluted 4-fold to a total of 10 concentrations. Column 1 and column 12 of 96-well plates were supplemented with 40 μl DMSO.
2. Intermediate Plate Configuration
1) AU-shaped 96-well plate was used, 199 μL of culture medium (DMEM+0.1% BSA) was added to each well, 1 μL of diluted compound (or DMSO) was sucked from 1000× compound plate and added into the 96-well plate at the corresponding position, blowed and stirred to mix well.
2) Homemade positive compounds and compounds to be tested were added. The cell culture plate was took out from the incubator and cells state was observed under microscope. Diluted compound in the intermediate plate or DMSO was added into the cell, 8 μl per well.
3) Cells were cultured in 37° C. and 5% CO2 for 4 hours.
3. The Substrate was Added to Detect the Binding of the Drug to the Receptor
1) 1 μmol/L CCF-4AM solution and buffer solution B, C, D were equilibrated to room temperature. LiveBLAZER™-FRET B/G Loading Kit (K1095, thermo Fisher) containing CCF-4AM and solution B, solution C, solution D were also available from Invitrogen (K1157, thermo Fisher).
2) 6× loading solution was prepared: 6 μl of CCF-4AM dissolved solution A, 60 μl of solution b, 904 μl of solution c, and 30 μl of solution D were pipetted into EP tube, blowed and stirred to mix well.
3) 8 μl of the above-mentioned liquid was sucked with a multichannel pipette, added into a 96-well plate, and incubated for 2 hours at room temperature.
4) The PerkinElmer detector was used to detect the luminous signals of each hole. FI mode, λex=409 nm, λem1=460 nm, λem2=530 nm.
4. Data Processing Using Graphpad Prism 5 (GraphPad Software. Inc)
Effective rate %=(Signal−Min)/(Max−Min)×100%.

pEC50 | SMILES
11.15 | CNC(=N)NCCC[C@H](NC(=O)[C@H](CC(C)C)NC(=O)NNC(=O)[C@H](Cc1ccccc1)NC(=O)[C@@H](NC(=O)[C@H](CC(N)=O)NC(=O)[C@@H]1C[C@@H](O)CN1C(=O)[C@@H](Cc1ccc(F)cc1)NC(C)=O)[C@@H](C)O)C(=O)N[C@@H](Cc1c[nH]c2ccccc12)C(N)=O [YA-170, Ac-[D-Phe(4-F)]-Hyp-Asn-Thr-Phe-azaGly-Leu-Arg(Me)-Trp-NH2] (Ac-[dPhe(4-F)][Hyp]NTF[azaGly]L[Arg(Me)]W-NH2)
11.15 | CNC(=N)NCCC[C@H](NC(=O)[C@H](CC(C)C)NC(=O)NNC(=O)[C@H](Cc1ccccc1)NC(=O)[C@@H](NC(=O)[C@H](CC(N)=O)NC(=O)[C@@H]1CC(F)(F)CN1C(=O)[C@@H](Cc1ccc(O)cc1)NC(C)=O)[C@@H](C)O)C(=O)N[C@@H](Cc1c[nH]c2ccccc12)C(N)=O [YA-80, Ac-D-Tyr-Pro(diF)-Asn-Thr-Phe-azaGly-Leu-Arg(Me)-Trp-NH2] (Ac-[dY][Pro(4,4-F2)]NTF[azaGly]L[Arg(Me)]W-NH2)
10.64 | CNC(=N)NCCC[C@H](NC(=O)[C@H](CC(C)C)NC(=O)NNC(=O)[C@H](Cc1ccccc1)NC(=O)[C@H](Cc1ccco1)NC(=O)[C@H](CC(N)=O)NC(=O)[C@@H]1C[C@@H](O)CN1C(=O)[C@@H](Cc1ccc(O)cc1)NC(C)=O)C(=O)N[C@@H](Cc1c[nH]c2ccccc12)C(N)=O [YA-143, Ac-D-Tyr-Hyp-Asn-2Fua-Phe-azaGly-Leu-Arg(Me)-Trp-NH2] (Ac-[dY][Hyp]N[Ala(2-furyl)]F[azaGly]L[Arg(Me)]W-NH2)
10.59 | CNC(=N)NCCC[C@H](NC(=O)[C@H](CC(C)C)NC(=O)NNC(=O)[C@H](Cc1ccccc1)NC(=O)[C@@H](NC(=O)[C@H](CC(N)=O)NC(=O)[C@@H]1CCCCN1C(=O)[C@@H](Cc1ccc(O)cc1)NC(C)=O)[C@@H](C)O)C(=O)N[C@@H](Cc1c[nH]c2ccccc12)C(N)=O [YA-85, Ac-D-Tyr-(S-Pip)-Asn-Thr-Phe-azaGly-Leu-Arg(Me)-Trp-NH2] (Ac-[dY][Pip]NTF[azaGly]L[Arg(Me)]W-NH2)
9.74 | CNC(=N)NCCC[C@H](NC(=O)[C@H](CC(C)C)NC(=O)[C@@H]1CCN1C(=O)[C@H](Cc1ccccc1)NC(=O)[C@@H](NC(=O)[C@H](CC(N)=O)NC(=O)[C@@H]1C[C@@H](O)CN1C(=O)[C@@H](Cc1ccc(O)cc1)NC(C)=O)[C@@H](C)O)C(=O)N[C@@H](Cc1c[nH]c2ccccc12)C(N)=O [YA-153, Ac-D-Tyr-Hyp-Asn-Thr-Phe-Aze-Leu-Arg(Me)-Trp-NH2] (Ac-[dY][Hyp]NTF[Aze]L[Arg(Me)]W-NH2)
9.27 | CNC(=N)NCCC[C@H](NC(=O)[C@H](CC(C)C)NC(=O)[C@@H](Cc1ccco1)NC(=O)[C@H](Cc1ccccc1)NC(=O)[C@@H](NC(=O)[C@H](CC(N)=O)NC(=O)[C@@H]1C[C@@H](O)CN1C(=O)[C@@H](Cc1ccc(O)cc1)NC(C)=O)[C@@H](C)O)C(=O)N[C@@H](Cc1c[nH]c2ccccc12)C(N)=O [YA-168, Ac-D-Tyr-Hyp-Asn-Thr-Phe-(D-2Fua)-Leu-Arg(Me)-Trp-NH2] (Ac-[dY][Hyp]NTF[dAla(2-furyl)]L[Arg(Me)]W-NH2)

More lines, now with the values behind:

SMILES | pEC50
CNC(=N)NCCC[C@H](NC(=O)[C@H](CC(C)C)NC(=O)NNC(=O)[C@H](Cc1ccccc1)NC(=O)[C@@H](NC(=O)[C@H](CC(N)=O)NC(=O)[C@H](CC1CCC1)NC(=O)[C@@H](Cc1ccc(O)cc1)NC(C)=O)[C@@H](C)O)C(=O)N[C@@H](Cc1c[nH]c2ccccc12)C(N)=O [YA-380, Ac-(D-Tyr)-Cba-Asn-Thr-Phe-azaGly-Leu-Arg(Me)-Trp-NH2] (Ac-[dY][Cba]NTF[azaGly]L[Arg(Me)]W-NH2) | 9.72
CNC(=N)NCCC[C@H](NC(=O)[C@H](CC(C)C)NC(=O)[C@@H]1CCN1C(=O)[C@H](Cc1ccccc1)NC(=O)[C@@H](NC(=O)[C@H](CC(N)=O)NC(=O)[C@@H]1CC(F)(F)CN1C(=O)[C@@H](Cc1ccc(F)cc1)NC(C)=O)[C@@H](C)O)C(=O)N[C@@H](Cc1c[nH]c2ccccc12)C(N)=O [YA-213, Ac-[D-Phe(4-F)]-Pro(diF)-Asn-Thr-Phe-Aze-Leu-Arg(Me)-Trp-NH2] (Ac-[dPhe(4-F)][Pro(4,4-F2)]NTF[Aze]L[Arg(Me)]W-NH2) | 9.40
CNC(=N)NCCC[C@H](NC(=O)[C@H](CC(C)C)N(C)C(=O)CCNC(=O)[C@H](Cc1ccccc1)NC(=O)[C@@H](NC(=O)[C@H](CC(N)=O)NC(=O)[C@@H]1CC(F)(F)CN1C(=O)[C@@H](Cc1ccco1)NC(C)=O)[C@@H](C)O)C(=O)N[C@@H](Cc1c[nH]c2ccccc12)C(N)=O [YA-186, Ac-[3-(2-Furyl)-D-Ala]-(DiFluorPro)-Asn-Thr-Phe-BetaAla-NMeLeu-Arg(Me)-Trp-NH2] (Ac-[dAla(2-furyl)][Pro(4,4-F2)]NTF[βAla][NMeL][Arg(Me)]W-NH2) | 8.41
CNC(=N)NCCC[C@H](NC(=O)[C@H](CC(C)C)NC(=O)[C@@H]1CCN1C(=O)[C@H](Cc1ccccc1)NC(=O)[C@H](Cc1ccco1)NC(=O)[C@H](CC(N)=O)NC(=O)[C@H](Cc1cccs1)NC(=O)[C@@H](Cc1ccc(O)cc1)NC(C)=O)C(=O)N[C@@H](Cc1c[nH]c2ccccc12)C(N)=O [YA-204, Ac-(D-Tyr)-Thi-Asn-2Fua-Phe-Aze-Leu-Arg(Me)-Trp-NH2] (Ac-[dY][2Thi]N[Ala(2-furyl)]F[Aze]L[Arg(Me)]W-NH2) | 8.06
CCCCCCCCCCCCCCCC(=O)NCCOCCOCCOCCOCCOCCOCCOCCOCCC(=O)NCC(=O)NCC(=O)N[C@@H](Cc1ccc(O)cc1)C(=O)N[C@@H](CC(N)=O)C(=O)N[C@@H](Cc1c[nH]c2ccccc12)C(=O)N[C@@H](CC(N)=O)C(=O)N[C@@H](CO)C(=O)N[C@@H](Cc1ccccc1)C(=O)NCC(=O)N[C@@H](CC(C)C)C(=O)N[C@@H](CCCNC(=N)N)C(=O)N[C@@H](Cc1ccccc1)C(N)=O [YA-158, Palm-PEG8-Gly-Gly-Tyr-Asn-Trp-Asn-Ser-Phe-Gly-Leu-Arg-Phe-NH2] | 10.32
CNC(=N)NCCC[C@H](NC(=O)[C@H](CC(C)C)NC(=O)NNC(=O)C1(NC(=O)[C@@H](NC(=O)[C@H](CC(N)=O)NC(=O)[C@@H]2C[C@@H](O)CN2C(=O)[C@@H](Cc2ccc(O)cc2)NC(C)=O)[C@@H](C)O)CCCCC1)C(=O)N[C@@H](Cc1c[nH]c2ccccc12)C(N)=O [YA-174, Ac-(D-Tyr)-Hyp-Asn-Thr-A6c-azaGly-Leu-Arg(Me)-Trp-NH2] (Ac-[dY][Hyp]NT[Ac6c][azaGly]L[Arg(Me)]W-NH2) | 8.59
CNC(=N)NCCC[C@H](NC(=O)[C@H](CC(C)C)NC(=O)NNC(=O)[C@H](Cc1ccccc1)NC(=O)[C@@H](NC(=O)[C@H](CC(N)=O)NC(=O)[C@](C)(CC(C)C)NC(=O)[C@@H](Cc1ccc(O)cc1)NC(C)=O)[C@@H](C)O)C(=O)N[C@@H](Cc1c[nH]c2ccccc12)C(N)=O [YA-379, Ac-(D-Tyr)-AlphaMeLeu-Asn-Thr-Phe-azaGly-Leu-Arg(Me)-Trp-NH2] (Ac-[dY][αMeL]NTF[azaGly]L[Arg(Me)]W-NH2) | 10.82
CNC(=N)NCCC[C@H](NC(=O)[C@H](CC(C)C)NC(=O)NNC(=O)[C@H](Cc1ccccc1)NC(=O)[C@@H](NC(=O)[C@H](CC(N)=O)NC(=O)[C@@H]1C[C@@H](O)CN1C(=O)[C@@H](Cc1ccc(O)cc1)NC(=O)CCNC(=O)CCNC(=O)[C@H](CCC(N)=O)NC(=O)[C@@H]1CCCN1C(=O)[C@H](CCCNC(=N)N)NC(=O)[C@H](CCCNC(=N)N)NC(=O)[C@H](CCCNC(=N)N)NC(=O)[C@H](CCC(N)=O)NC(=O)[C@H](CCCNC(=N)N)NC(=O)[C@H](CCCNC(=N)N)NC(=O)[C@H](CCCCN)NC(=O)[C@H](CCCCN)NC(=O)[C@H](CCCNC(=N)N)NC(=O)CNC(C)=O)[C@@H](C)O)C(=O)N[C@@H](Cc1c[nH]c2ccccc12)C(N)=O [YA-291, Ac-Gly-Arg-Lys-Lys-Arg-Arg-Gln-Arg-Arg-Pro-Gln-(Beta-Ala)-(Beta-Ala)-(D-Tyr)-Hyp-Asn-Thr-Phe-Azag-Leu-Arg(Me)-Trp-NH2] (Ac-GRKKRRQRRRPQ[βAla][βAla][dY][Hyp]NTF[azaGly]L[Arg(Me)]W-NH2) | 9.51
CNC(=N)NCCC[C@H](NC(=O)[C@H](CC(C)C)NC(=O)[C@@H]1CCN1C(=O)[C@H](Cc1ccccc1)NC(=O)[C@@H](NC(=O)[C@H](CC(N)=O)NC(=O)[C@@H]1C[C@@H](O)CN1C(=O)[C@@H](Cc1ccc(Cl)cc1Cl)NC(C)=O)[C@@H](C)O)C(=O)N[C@@H](Cc1c[nH]c2ccccc12)C(N)=O [YA-188, Ac-[D-Phe(2,4-DiCl)]-Hyp-Asn-Thr-Phe-Aze-Leu-Arg(Me)-Trp-NH2] (Ac-[dPhe(2,4-Cl2)][Hyp]NTF[Aze]L[Arg(Me)]W-NH2) | 9.32

same assay, conditions: human kiss1 receptor (GPR54), NFAT-bla CHO-K1 cells, FRET; preliminary data; method of effect Embodiment 1; read-out: Preliminary measurement data (GPR54) EC50

pEC50 | SMILES
8.81 | CNC(=N)NCCC[C@H](NC(=O)[C@H](CC(C)C)NC(=O)[C@](C)(CC(C)C)NC(=O)[C@H](Cc1ccccc1)NC(=O)[C@@H](NC(=O)[C@H](CC(N)=O)NC(=O)[C@@H]1C[C@@H](O)CN1C(=O)[C@@H](Cc1ccc(O)cc1)NC(C)=O)[C@@H](C)O)C(=O)N[C@@H](Cc1c[nH]c2ccccc12)C(N)=O [YA-370, Ac-(D-Tyr)-Hyp-Asn-Thr-Phe-(α-Me-Leu)-Leu-Arg(Me)-Trp-NH2] (Ac-[dY][Hyp]NTF[αMeL]L[Arg(Me)]W-NH2)
8.66 | CNC(=N)NCCC[C@H](NC(=O)[C@H](CC(C)C)NC(=O)CCNC(=O)[C@H](Cc1ccccc1)NC(=O)[C@@H](NC(=O)[C@H](CC(N)=O)NC(=O)[C@@H]1C[C@@H](O)CN1C(=O)[C@@H](Cc1ccc(O)cc1)NC(C)=O)[C@@H](C)O)C(=O)N[C@@H](Cc1c[nH]c2ccccc12)C(N)=O [YA-337, Ac-(D-Tyr)-Hyp-Asn-Thr-Phe-BetaAla-Leu-Arg(Me)-Trp-NH2] (Ac-[dY][Hyp]NTF[βAla]L[Arg(Me)]W-NH2)
8.92 | CCC(CC)(NC(=O)[C@H](Cc1ccccc1)NC(=O)[C@@H](NC(=O)[C@H](CC(N)=O)NC(=O)[C@@H]1C[C@@H](O)CN1C(=O)[C@@H](Cc1ccc(O)cc1)NC(C)=O)[C@@H](C)O)C(=O)N[C@@H](CC(C)C)C(=O)N[C@@H](CCCNC(=N)NC)C(=O)N[C@@H](Cc1c[nH]c2ccccc12)C(N)=O [YA-355, Ac-(D-Tyr)-Hyp-Asn-Thr-Phe-Deg-Leu-Arg(Me)-Trp-NH2] (Ac-[dY][Hyp]NTF[Deg]L[Arg(Me)]W-NH2)
